Results as given in article PMC5788896 (Frontiers in Pharmacology, 2018).

Legend:
[1] = design: method as in Turina et al., 2006; settings: ref Turina et al., 2006; cited from earlier work
[2] = test system: NAD(P)H: quinone reductase (NQO1); assay: NAD(P)H:quinone reductase activity in liver after 28-day treatment; assay type: in vivo, C57BL/6 mice; settings: mice liver, geraniol 120 mg/kg by gavage for 28 days
From the text: At the end of treatment, mice were killed. […] NAD(P)H:quinone reductase (NQO1) activity.

[3] = design: method as in Turina et al., 2006; settings: ref Turina et al., 2006; cited from earlier work; remark: listed apart in the source
[4] = Stability of geraniol in phosphate buffered saline; assay type: physicochemical; settings: 37°C, for at least 8 h, data not shown
From the text: During the experiment drug solutions were shaken continuously and gently in an oscillating water-bath.

[5] = test system: Glutathione S-transferase (GST); assay: Glutathione S-transferase activity in liver after 28-day treatment; assay type: in vivo, C57BL/6 mice; settings: mice liver
Method: (§1) At the end of treatment, mice were killed.
The incubation mixture for measuring overall GST activity contained 1 mM glutathione + 1 mM 1-chloro-2,4-dinitrobenzene (CDNB) in methanol + 0.025 mL of sample in a final volume of 2.5 mL 0.1 M phosphate Na^+/K^+ buffer (pH 6.5). The product of the reaction of the thiol group of glutathione with the electrophilic group of CDNB was read at 340 nm (ε = 9.6 mM^-1 cm^-1) ([Vivarelli et al., 2016a]).

[6] = Hematochemical analysis and lipid serum profile after 28-day treatment; assay type: in vivo, C57BL/6 mice
Method: as §1
For each animal, blood samples were collected in both heparinized and non-heparinized tubes. Plasma from heparinized samples was obtained after tabletop centrifugation at 2,000 rpm, while blood in non-heparinized tubes was centrifuged at 1,500 rpm for 10 min after complete coagulation, to obtain serum. Biochemical and hematological analyses were assessed by the Department of Veterinary Medical Science, University of Bologna.

[7] = test system: NCM460 cell monolayers; assay: Permeation studies across NCM460 cell monolayers (Millicell inserts, HPLC); assay type: in vitro ADME, human; settings: A → B higher than B → A, P < 0.001
Method: Differentiation to NCM460 cell monolayers was performed essentially according to the method reported by [Ferretti et al. (2015)]. Briefly, after two passages, confluent NCM460 cells were seeded at a density of 10^5 cells/mL in a 1:1 ratio of fresh and spent culture medium in 12-well Millicell inserts (Millipore, Milan, Italy) consisting of 1.0 μm pore size polyethylene terephthalate (PET) filter membranes, whose surface was 1.12 cm^2. Filters were presoaked for 24 h with fresh culture medium, and then the upper compartment (apical, A) received 400 μL of the diluted cells, whereas the lower compartment (basolateral, B) received 2 mL of the medium in the absence of cells. […] The integrity of the cell monolayers was monitored by measuring the transepithelial electrical resistance (TEER) by means of a voltmeter (Millicell-ERS; Millipore, Milan, Italy). The measured resistance value was multiplied by the area of the filter to obtain an absolute value of TEER, expressed as Ω⋅cm^2. […] The homogeneity and integrity of the cell monolayer were also monitored by phase contrast microscopy. […]
Permeation experiments were performed in triplicate in both the apical-to-basolateral (A → B) and basolateral-to-apical (B → A) directions. […] TEER values were monitored before and after each experiment. […]
The permeabilities were determined for the filters alone (Pf), and for the filters covered with cells (Pt). […]

[8] = Intravenous infusion pharmacokinetics, whole blood by HPLC; assay type: in vivo, Sprague-Dawley rats
Method: The samples were extracted and analyzed as described above, with the only difference that the samples withdrawn within 20 min after infusion were diluted 1:10 using the H2O:CH3CN mixture (50:50 v/v) before analysis. Four rats ware employed for intravenous infusions of geraniol. […] The calculations were performed using the computer program GraphPad Prism. […] At the end of the oral administration and at fixed time points, blood samples (100 μL) were collected and CSF samples (50 μL) were withdrawn using the cysternal puncture method described by [van den Berg et al. (2002)], which requires a single needle stick and allows the collection of serial (40–50 μL) CSF samples that are virtually blood-free ([Dalpiaz et al., 2014]). A total volume of approximately 150 μL of CSF was collected during the experimental session. […] In particular, blood withdrawals for all programmed time points were repeated four times with a corresponding number of rats; CSF withdrawals for all programmed time points were repeated at least four times with a number of rats allowing no more than three CSF withdrawals from each of them. […] All the calculations were performed using the computer program Graph Pad Prism.

[9] = test system: UDP glucuronosyl-transferase (UDPGT); assay: UDP-glucuronosyl transferase activity in liver after 28-day treatment; assay type: in vivo, C57BL/6 mice; settings: mice liver
Method: At the end of treatment, mice were killed. […] Experiments were performed in the presence or absence of Triton X-100 (0.2%) as a detergent, in order to improve the assay sensitivity ([Canistro et al., 2008]).

[10] = test system: Oxidized glutathione reductase (GSSG-red); assay: Oxidized glutathione reductase activity in liver after 28-day treatment; assay type: in vivo, C57BL/6 mice; settings: mice liver
Method: At the end of treatment, mice were killed. […] Oxidized glutathione reductase activity (GSSG-red). […] The generation of NADP^+ from NADPH during the reduction of GSSG was recorded at 340 nm for 5 min at 37°C. GSSG-red activity was calculated using the extinction coefficient of 6.22 per mM x cm, and expressed as mol of NADPH consumed/min per mg protein ([Bonamassa et al., 2016]).

[11] = test system: Catalase (CAT); assay: Catalase activity in liver after 28-day treatment; assay type: in vivo, C57BL/6 mice; settings: mice liver
Method: At the end of treatment, mice were killed. […] Catalase (CAT) activity. The reaction was started in a quartz cuvette containing 50 mM potassium phosphate buffer and cytosol sample by adding 30 mM H2O2.

[12] = test system: Superoxide dismutase (SOD); assay: Superoxide dismutase activity in liver after 28-day treatment; assay type: in vivo, C57BL/6 mice; settings: mice liver
Method: At the end of treatment, mice were killed. […] Superoxide dismutase activity (SOD): Superoxide dismutase activity was determined according to Misra and Fridovich’s assay ([Misra and Fridovich, 1972]). Briefly, the activity was assayed spectophotometrically at […] by monitoring the generation of adenochrome, one of the main products of epinephrine autoxidation at pH 10.2. The dejection of autoxidation was used to calculate SOD activity using the extinction coefficient of 4.02 per mM × cm, and expressed as mol of epinephrine oxidized/min per mg protein, derived by subtracting each test curve from the epinephrine autoxidation standard curve ([Bonamassa et al., 2016]).

[13] = test system: NCM460 cell monolayers; settings: P-gp efflux transporter substrate; ref Marchetti et al., 2016; cited from earlier work
[14] = intravenous administration of 1 mg/kg; ref Gavini et al., 2011; cited from earlier work
[15] = 120 mg/kg 28 days, versus controls
[16] = geraniol 120 mg/kg by gavage for 28 days
[17] = mice blood, geraniol 120 mg/kg by gavage for 28 days
[18] = mice serum, geraniol 120 mg/kg by gavage for 28 days

CC12CCC(CC1)C(C)(C)O2 [cineole]
membrane/water partition coefficient (Pm/w) [1]: 3.37

CC(C)=CCC/C(C)=C/CO [geraniol, 3,7-dimethylocta-trans-2,6-dien-1-ol]
NAD(P)H: quinone reductase (NQO1), Mean [2]: 12.43 nmol/mg/min
n-octanol/water partition coefficient [3]: 2.65
stability in PBS [4]: highly stable
effect on Phase II enzymes (GST) [5, 15]: not affected
Glutathione S-transferase (GST), Mean [5, 16]: 2.60 µmol/mg/min
ALT [6, 17]: 34 ± 5 U/l
AST [6, 17]: 149 ± 24 U/l
Cholesterol [6, 18]: 94 ± 7 mg/dL
HDL cholesterol [6, 18]: 66 ± 4 mg/dL
liver toxicity ([6]; mice, 120 mg/kg of geraniol for 4 weeks): no signs of liver toxicity
permeation rate apical to basolateral versus opposite direction [7]: roughly sixfold
drug concentration in the rat bloodstream after intravenous infusion ([8]; iv infusion 12.5 mg (50 mg/kg), end of infusion): 298 ± 19 µg/mL
AUC ([8]; male, Sprague-Dawley, rat, iv 50 mg/kg, blood, within 3 h, read-out: AUC, intravenous administration (converted)): 126 µg·h/mL
half-life ([8]; male, Sprague-Dawley, rat, iv infusion 12.5 mg (50 mg/kg), apparent first order kinetics, read-out: half-life in the bloodstream): 12.5 ± 1.5 min
effect on Phase II enzymes (UDPGT) [9, 15]: not affected
UDP glucuronosyl-transferase (UDPGT), Mean [9, 16]: 3.89 nmol/mg/min
oxidized glutathione reductase (GSSG-red) induction with respect to controls ([10]; 120 mg/kg 28 days, P < 0.01): up to 56%
Oxidized glutathione reductase (GSSG-red), Mean [10, 16]: 118.31 µmol/mg/min
catalase (CAT) induction with respect to controls ([11]; 120 mg/kg 28 days, P < 0.01): up to 29%
Catalase (CAT), Mean [11, 16]: 2.55 µmol/mg/min
membrane/water partition coefficient (Pm/w) [1]: 4.38
effect on Superoxide dismutase (SOD) activity [12, 15]: not affected
Superoxide dismutase (SOD), Mean [12, 16]: 13.65 nmol/mg/min

CCN(CC)C(=O)Nc1ccc(OCC(O)CNC(C)(C)C)c(C(C)=O)c1 (stereo not shown) [celiprolol]
direction of transport across NCM460 monolayers [13]: rate from basolateral to apical compartments being significantly higher than its rate in the opposite direction

CC1CCC(C(C)C)C(O)C1 (stereo not shown) [menthol]
membrane/water partition coefficient (Pm/w) [1]: 2.44

CC12CCC(CC1=O)C2(C)C (stereo not shown) [camphor]
membrane/water partition coefficient (Pm/w) [1]: 3.99

CCCC(=O)O[C@H]1[C@H](C)O[C@@H](O[C@H]2[C@H](N(C)C)[C@@H](O)[C@H](O[C@H]3[C@@H](CC=O)C[C@@H](C)[C@@H](O)/C=C/C=C/C[C@@H](C)OC(=O)C[C@@H](O)[C@@H]3OC)O[C@@H]2C)C[C@@]1(C)OC(=O)CC [rokitamycin]
concentration values in whole blood [14]: up to 7 μg/mL
